From patent publication US11478474B2, “2-(3′-(hydroxymethyl)-1-methyl-5-((5-(2-methyl-4-(oxetan-3-yl)piperazin-1-yl)pyridin-2-yl)amino)-6-oxo-1,6-dihydro-[3,4′-bipyridin]-2′-yl)-7,7-dimethyl-7,8-dihydro-2H-cyclopenta[4,5]pyrrolo[1,2-a]pyrazin-1(6H)-one as a BTK inhibitor” (HUTCHISON MEDIPHARMA LIMITED, priority 2020, dated 2022)
Read-outs that look alike come from different tables or passages of the source.

Experiments:
[1] = Stability test in liver microsomes (rat); format: in vitro ADME; settings: rat liver microsomes 0.5 mg/mL, compound 1 μM, 37° C.
Excerpt: (§1) Example 5 Stability Test in Liver Microsomes
(§2) Both male CD-1 mouse pooled liver microsomes and male SD rat pooled liver microsomes were purchased from BioreclamationIVT Corporation, USA.
(§3) Phenacetin, glucose-6-phosphate dehydrogenase (G-6-PDH) and nicotinamide adenine dinucleotide phosphate (NADP) were all purchased from Sigma-Aldrich Corporation, USA. Glucose-6-phosphate (G-6-P) was purchased from Shanghai Eybridge Chemical Technology Co., Ltd.
(§4) Ten mM test compound stock solution: a certain amount of test compound was weighed, and dissolved with an appropriate volume of DMSO to prepare a stock solution with a concentration of 10 mM for use.
(§5) Reaction stopping solution: an appropriate amount of internal standard compound phenacetin was dissolved in acetonitrile to prepare a reaction stopping solution with a concentration of 1000 ng/mL for use at room temperature.
(§6) The test compound stock solution was diluted with an organic solvent (usually a mixture of acetonitrile, methanol and water with various ratios, depending on the solubility of the compound, if necessary, 1 N hydrochloric acid or 1 N sodium hydroxide would be added to facilitate solubilization) to the 0.1 mM (the final concentration of the compound in the reaction system was 1 μM) and the concentration percentage of the organic solvents in the incubation system no more than 1% (wherein the percentage of DMSO was required to be no more than 0.1%). An appropriate amount of 100 mM NADP, 500 mM G-6-P and 100 Unit/mL G-6-PDH were mixed and diluted with ultrapure water (the final system contains 1 mM NADP, 5 mM G-6-P and 1 Unit/mL G-6-PDH), pre-incubated in a 37° C. water bath for 10 minutes and then placed on ice for use as a NADPH regeneration solution. 20 mg/mL liver microsomes solution and 200 mM phosphate buffer was mixed, and diluted with ultrapure water to give a liver microsomes solution containing 2.5 mg/mL liver microsomes (the final concentration of the reaction system is 0.5 mg/mL) and 50 mM phosphate buffer. The diluted liver microsomes solution was mixed with 0.1 mM compound solution, a mixture of 100 mM EDTA, 300 mM MgCl2 solution, 200 mM phosphate buffer (the final system was 3 mM MgCl2, 1 mM EDTA and 50 mM phosphate buffer) and water in an appropriate volume was added. Finally, the NADPH regeneration solution was added, then the reaction solution was placed in a 37° C. water bath to start the reaction (the reaction time was 30 minutes), and the reaction was stopped by adding the ice-cold acetonitrile reaction stopping solution containing the internal standard. The 0-minute sample was not incubated in a 37° C. water bath, and its difference from the 30-minute sample further lies in that the ice-cold acetonitrile reaction stopping solution containing the internal standard was added first, and then the NADPH regeneration solution was added. The sample added with the reaction stopping internal standard solution was vortexed and mixed well, and then centrifuged at 4400 rpm for 10 minutes. The supernatant was taken and diluted ten times with 50% methanol for LC-MS/MS analysis.
(§7) LC-MS/MS was used to determine the concentration of the compound in the sample. The percentage of the remaining compound after 30 minutes of incubation comparing with that in the 0-minute sample was calculated using the peak area ratio of the compound to the internal standard as an indicator, to evaluate the metabolic stability of the compound.
(§8) Instrument: API4500, API4000 or LTQ Mass Spectrometer; the liquid phase is UHPLC system (Shimadzu LC-30 AD, model Nexra X2) including liquid delivery unit, column thermostat, detector and autosampler; or Agilent 1200 Binary Pump series HPLC and CTC Autosampler.
(§9) Chromatographic column: Waters XSELECT Hss T3 C18 (2.5 μm, 2.1×50 mm) or […] (5 μm, 2.0×50 mm)
(§10) A: water with 0.1% FA (formic acid) (with or without 0.1% ACN (acetonitrile))
(§11) B: acetonitrile with 0.1% FA (formic acid).

[2] = Study on in vivo pharmacokinetics in mice; settings: male ICR mice, oral (intragastric) administration, 10 mg/kg, plasma
Excerpt: Example 6 Study on In Vivo Pharmacokinetics in Mice
Solutol HS15 was purchased from BASF, Germany, ethanol (anhydrous) was purchased from Nanjing Chemical Reagent Co., Ltd., physiological saline was purchased from Huayu (Wuxi) Pharmaceutical Co., Ltd., dimethyl sulfoxide (DMSO) and sodium carboxymethyl cellulose 800-1200 (CMC-Na) were purchased from Sinopharm Chemical Reagent Co., Ltd.
Preparation of ethanol/Solutol mixed solution (1:1, v/v): taking an appropriate amount of Solutol HS15 in a centrifuge tube and placing in a 37° C. water bath until dissolved, placing on the bench top to room temperature, taking 1 mL of Solutol in a centrifuge tube containing 1 mL of ethanol and mixing well to obtain the mixed solution.
Taking an appropriate amount of stock solution and placing in a blank centrifuge tube, adding an appropriate amount of ethanol/Solutol mixed solution prepared in advance, vortexing, then adding an appropriate amount of physiological saline, and mixing well until a transparent liquid.
3. Administration to Animals and Sample Collection:
Male ICR mice were purchased from Shanghai Lingchang Biotechnology Co., Ltd. 18 mice were randomly divided into intravenous administration group and intragastric administration group. The mice were fasted overnight before administration. The mice were withheld food but allowed to access water freely within 4 hours after administration, and allowed to freely access food and water after 4 hours. After anesthesia with isoflurane, blood was collected from the retroorbital venous plexus and placing in an centrifuge tube containing anticoagulant, and the centrifuge tube was stored in an box containing wet ice until the plasma was centrifuged.
The plasma samples were pre-treated and then analyzed by liquid chromatography-tandem mass spectrometry (LC-MS/MS), the instrument model was API5500. The analytical chromatographic column was Waters XSELECT HSS T3 C18 column (50×2.1 mm, 2.5 μm). In the mobile phases, deionized water containing 0.1% formic acid and 0.1% acetonitrile was used as the aqueous phase and acetonitrile containing 0.1% formic acid was used as the organic phase. The concentrations of the compound in the samples were determined as follows. Firstly, a standard curve was established, and the peak area ratios of the compound 19 to the internal standard in the standard curve were used as indexes. The theoretical concentrations of compound 19 and the peak area ratios of compound 19 to the internal standard were fitted with a quadratic regression equation to obtain the regression equation. The sample concentrations were calculated by measuring the peak area ratio of the compound of the test sample to the internal standard according to the standard curve.

[3] = Stability test in liver microsomes (mouse); format: in vitro ADME; settings: mouse liver microsomes 0.5 mg/mL, compound 1 μM, 37° C.
Excerpt: as §1, §2, §3, §4, §5, §6, §7, §8, §9, §10, §11

- RLM (percentage of the remaining compound after 30 minutes of incubation) [1]: 81.0%
- Cmax [2]: 4063 ng/mL
- C24 h (plasma concentration at 24 h) ([2]; 24 h): <2.4 ng/mL
- AUC(0-inf) ([2]; mouse): 10300 ng·h/mL
- half-life ([2]; mouse): 1.5 h
- concentration at 8 h ([2]; mouse, 8 h, read-out: C8 h (plasma concentration at 8 h)): 143 ng/mL
- concentration at 24 h ([2]; mouse, 24 h, read-out: C24 h (plasma concentration at 24 h)): < 2.4 ng/mL
- Cmax ([2]; mouse, read-out: Cmax): 4060 ng/mL
- MLM (percentage of the remaining compound after 30 minutes of incubation) [3]: 76.3%
SMILES: C[C@H]1CN(C2COC2)CCN1c1ccc(Nc2cc(-c3ccnc(N4CCn5c(cc6c5CC(C)(C)C6)C4=O)c3CO)cn(C)c2=O)nc1 [GDC-0853, fenebrutinib, reference compound]
